Measurements published in patent US4585773A, “Isoindolinyl-alkyl-piperazines” (Bristol-Myers Company, priority 1984, dated 1986).
Where two headings read alike, the source gives them in different places.

Assays:
[1] = conscious rat diuretic screen of Lipschitz (Table I); type: in vivo, rat (female Sprague Dawley; male Okamoto-Aoki); conditions: for response vs control in vivo at 0.3 mg/kg / response vs control in vivo at 3 mg/kg / response vs control in vivo at 30 mg/kg / response vs control in vivo at 10 mg/kg: Rattus norvegicus, po
In short: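 Conscious rats (female Sprague Dawley or male Okamoto-Aoki) received test compound orally in dose-response fashion; urine volume, Na+ and K+ excretion were measured. Values are ratios of amounts excreted by treated versus control rats.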

[2] = test system: DOCA-salt Hypertensive Rat; test: antihypertensive activity, DOCA-salt Hypertensive Rat (Table II); type: in vivo; conditions: for ΔBP 4 hours / ΔHR 4 hours: DOCA
Protocol: DOCA-salt Hypertensive Rat
Male rats initially weighing 80-100 g, are made hypertensive by surgically implanting two 50 mg pellets of deoxycorticosterone acetate (DOCA) under the skin of the abdomen of each rat and providing 1% saline ad libitum. After three weeks, the 1% saline is replaced with distilled water. One week later, animals are anesthetized with methoxyflurane and a catheter advanced into the aorta via the left common corotid artery to record mean arterial blood pressure (MABP) and heart rate. The heparin-filled catheter is passed beneath the skin and exteriorized behind the head. Two days later, MABP and heart rate are determined before and four hours after oral administration of vehicle (0.25% Methocel in 0.9% saline) or test compound suspended in vehicle at a dose volume equivalent to 5 ml/kg.
Testing was carried out on the compounds of Examples I-XII for antihypertensive activity. In the case of all the compounds testing was carried out on the Spontaneously Hypertensive rat as described hereinbefore. In the case of the compounds of Examples I-IV testing was also carried out on the DOCA-salt Hypertensive Rat. The compound of Example I was tested as its monochloride 2-propanolate hydrate, i.e. as C22 H27 ClN4 O4 S.HCl.0.2(CH3)2 CHOH.0.15H2 O in Tests 1-5; and as the 3/4 mole hydrochloride, i.e. C22 H27 ClN4 O4 S: 3/4 HCl in Tests 3a, 4a, 5a-5d. Test results are set forth in Table II below wherein SHR stands for Spontaneously Hypertensive rat, DOCA stands for DOCA-salt Hypertensive Rat, ΔBP stands for the change in systolic blood pressure in mm Hg, ΔHR stands for the change in mean heart rate in beats per minute and the times set forth are the times after dosing. A peak change in ΔBP of more than 20 is considered as indicating activity.

[3] = test system: α blocking activity (phenylephrine); test: in vivo α blocking activity, phenylephrine (PE) as α-agonist (Table III); set-up: species or system rat; ED50: unit not given beside the values; conditions: for Average Dose Shift: ED50 after/before drug, PE; for in vivo α blocking activity (in words): conclusion from Table III; for ED50: iv
In short: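 Rats received phenylephrine or norepinephrine as α-agonist before and after test drug, given intravenously except oral in Tests 2a, 3, 3a and 26-29. ED50 is the average interpolated agonist dose raising mean arterial pressure by 50 mm Hg; dose shift is the post-drug/pre-drug ED50 ratio.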

[4] = biological target: α1; test: in vitro α1 binding, [3H]WB-4101 (Table IV); conditions: for IC50: [3H]WB-4101, brain tissue, 50 mM Hepes.KOH, pH 7.4, read-out: α1 Binding IC50
Protocol: (§1) In this Example the compounds of Examples I-XI were tested in vitro for α1 and α2 binding. The compound of Example I was tested as its monochloride 2-propanolate hydrate, i.e. as C22 […] CLN4 O4 S .HCl.0.2(CH3)2 CHOH 0.15H2 O. In the testing specific brain tissues were prepared as sources of binding sites. Aliquots of the washed members are incubated with a low concentration of […]. After incubation at suitable temperature, the reaction mixture is treated to separate the membrane-bound radioligand Radioactivity is measured. Linear regression analysis of the probit value for the percent of binding occurring in the presence of varying concentrations of the compound of interest plotted against the concentration of the compound yields concentrations which inhibit 50% specific binding, the IC50. The assay buffer is 50 mM Hepes.KOH, pH 7.4. The ligand is [^3 H]WB-4101 from New England Nuclear for α1 and [^3 H]Clonidine from New England Nuclear for α2. The results are considered against phentolamine methanesulfonate (Reference) which is considered a good α-binder.

[5] = test system: α2; test: in vitro α2 binding, [3H]Clonidine (Table IV); conditions: for IC50: [3H]Clonidine, brain tissue, 50 mM Hepes.KOH, pH 7.4, read-out: α2 Binding IC50
Protocol: as §1

[6] = 3 mg/kg oral, male Okamoto-Aoki rats
[7] = 30 mg/kg oral, female Sprague Dawley rats
[8] = 30 mg/kg oral, male Okamoto-Aoki rats
[9] = 3 mg/kg oral, male Okamoto-Aoki rats, read-out: K+ Ratio
[10] = 3 mg/kg oral, male Okamoto-Aoki rats, read-out: Na+ Ratio
[11] = 3 mg/kg oral, male Okamoto-Aoki rats, read-out: Volume Ratio
[12] = 30 mg/kg oral, female Sprague Dawley rats, read-out: K+ Ratio
[13] = 30 mg/kg oral, female Sprague Dawley rats, read-out: Na+ Ratio
[14] = 30 mg/kg oral, female Sprague Dawley rats, read-out: Volume Ratio
[15] = 30 mg/kg oral, male Okamoto-Aoki rats, read-out: K+ Ratio
[16] = 30 mg/kg oral, male Okamoto-Aoki rats, read-out: Na+ Ratio
[17] = 30 mg/kg oral, male Okamoto-Aoki rats, read-out: Volume Ratio
[18] = 0.3 mg/kg oral, as 3/4 mole hydrochloride
[19] = 3.0 mg/kg oral, as 3/4 mole hydrochloride
[20] = 30 mg/kg oral, as 3/4 mole hydrochloride
[21] = 100 mg/kg oral, as 3/4 mole hydrochloride

Question: Which “Urinary Na/K (Test Compound)” value ([1]; 0.3 mg/kg oral, male Okamoto-Aoki rats) does the source give for COc1ccccc1N1CCN(CCCN2Cc3cc(Cl)c(S(N)(=O)=O)cc3C2=O)CC1 [Example I, 6-chloro-2,3-dihydro-2-[3-[4-(2-methoxyphenyl)-1-piperazinyl]propyl]-3-oxo-1H-isoindole-5-sulfonamide] here?
Answer: 0.81

Question: What about the “Urinary Na/K (Test Compound)” value ([1]; 3 mg/kg oral, female Sprague Dawley rats) of the same compound?
Answer: 2.55

Question: And the “Urinary Na/K (Test Compound)” value [1, 6]?
Answer: 1.14

Question: What about the “Urinary Na/K (Test Compound)” value [1, 7] of the same compound?
Answer: 2.98

Question: And the “Urinary Na/K (Test Compound)” value [1, 8]?
Answer: 1.56

Question: What about the “natriuretic response (in words)” value ([1]; 3.0 to 30 mg/kg body weight) of the same compound?
Answer: dose-dependent natriuretic response

Question: What about the response vs control in vivo at 0.3 mg/kg ([1]; 0.3 mg/kg oral, male Okamoto-Aoki rats, read-out: K+ Ratio) of the same compound?
Answer: 78%

Question: What about the response vs control in vivo at 0.3 mg/kg ([1]; 0.3 mg/kg oral, male Okamoto-Aoki rats, read-out: Na+ Ratio) of the same compound?
Answer: 96%

Question: And the response vs control in vivo at 0.3 mg/kg ([1]; 0.3 mg/kg oral, male Okamoto-Aoki rats, read-out: Volume Ratio)?
Answer: 82%

Question: What about the response vs control in vivo at 3 mg/kg ([1]; 3 mg/kg oral, female Sprague Dawley rats, read-out: K+ Ratio) of the same compound?
Answer: 100%

Question: What about the response vs control in vivo at 3 mg/kg ([1]; 3 mg/kg oral, female Sprague Dawley rats, read-out: Na+ Ratio) of the same compound?
Answer: 108%

Question: What about the response vs control in vivo at 3 mg/kg ([1]; 3 mg/kg oral, female Sprague Dawley rats, read-out: Volume Ratio) of the same compound?
Answer: 93%

Question: What about the response vs control in vivo at 3 mg/kg [1, 9] of the same compound?
Answer: 103%

Question: What about the response vs control in vivo at 3 mg/kg [1, 10] of the same compound?
Answer: 168%

Question: What about the response vs control in vivo at 3 mg/kg [1, 11] of the same compound?
Answer: 204%

Question: What about the response vs control in vivo at 30 mg/kg [1, 12] of the same compound?
Answer: 106%

Question: What about the response vs control in vivo at 30 mg/kg [1, 13] of the same compound?
Answer: 136%

Question: And the response vs control in vivo at 30 mg/kg [1, 14]?
Answer: 98%

Question: And the response vs control in vivo at 30 mg/kg [1, 15]?
Answer: 117%

Question: And the response vs control in vivo at 30 mg/kg [1, 16]?
Answer: 261%

Question: What about the response vs control in vivo at 30 mg/kg [1, 17] of the same compound?
Answer: 251%

Question: What about the “antihypertensive activity (in words)” value ([2]; DOCA-hypertensive rat) of the same compound?
Answer: demonstrates activity in the DOCA-hypertensive rat

Question: And the “ΔBP 4 hours” value [2, 18]?
Answer: -14 ± 5 mm Hg

Question: And the “ΔHR 4 hours” value [2, 18]?
Answer: -8 ± 20 beats per minute

Question: And the “ΔBP 4 hours” value [2, 19]?
Answer: -15 ± 6 mm Hg

Question: What about the “ΔHR 4 hours” value [2, 19] of the same compound?
Answer: -6 ± 24 beats per minute

Question: And the “ΔBP 4 hours” value ([2]; 30 mg/kg oral)?
Answer: -49 ± 9 mm Hg

Question: And the “ΔHR 4 hours” value ([2]; 30 mg/kg oral)?
Answer: 59 ± 28 beats per minute

Question: What about the “ΔBP 4 hours” value [2, 20] of the same compound?
Answer: -53 ± 9 mm Hg

Question: What about the “ΔHR 4 hours” value [2, 20] of the same compound?
Answer: 53 ± 26 beats per minute

Question: And the “ΔBP 4 hours” value [2, 21]?
Answer: -75 ± 3 mm Hg

Question: What about the “ΔHR 4 hours” value [2, 21] of the same compound?
Answer: 23 ± 32 beats per minute

Question: And the “Average Dose Shift” value ([3]; dose 30, oral)?
Answer: 33 ± 11

Question: What about the “in vivo α blocking activity (in words)” value [3] of the same compound?
Answer: active as in vivo α blockers

Question: What about the ED50 [3] of the same compound?
Answer: 161.8

Question: And the IC50 [4]?
Answer: 1.48 nM

Question: And the “α1 binding activity (in words)” value ([4]; listed as MJ 15037)?
Answer: demonstrates activity in binding both α1 and α2 sites

Question: And the “α2 binding activity (in words)” value [5]?
Answer: α2 binding activity

Question: And the IC50 [5]?
Answer: 555 nM

Question: What about the “α2 binding activity (in words)” value ([5]; listed as MJ 15037) of the same compound?
Answer: demonstrates activity in binding both α1 and α2 sites

Question: Which “Urinary Na/K (Test Compound)” value [1, 6] does the source give for COc1ccccc1N1CCN(CCN2Cc3cc(Cl)c(S(N)(=O)=O)cc3C2=O)CC1 [Example III, 6-Chloro-2,3-dihydro-2-[2-[4-(2-methoxyphenyl)-1-piperazinyl]ethyl]-3-oxo-1H-isoindole-5-sulfonamide] here?
Answer: 6.1

Question: And the “Urinary Na/K (Test Compound)” value ([1]; 10 mg/kg oral, male Okamoto-Aoki rats)?
Answer: 6.7

Question: What about the “Urinary Na/K (Test Compound)” value [1, 7] of the same compound?
Answer: 3.44

Question: And the “Urinary Na/K (Test Compound)” value [1, 8]?
Answer: 6.7

Question: And the response vs control in vivo at 3 mg/kg [1, 9]?
Answer: 121%

Question: And the response vs control in vivo at 3 mg/kg [1, 10]?
Answer: 113%

Question: What about the response vs control in vivo at 3 mg/kg [1, 11] of the same compound?
Answer: 122%

Question: And the response vs control in vivo at 10 mg/kg ([1]; 10 mg/kg oral, male Okamoto-Aoki rats, read-out: K+ Ratio)?
Answer: 115%

Question: And the response vs control in vivo at 10 mg/kg ([1]; 10 mg/kg oral, male Okamoto-Aoki rats, read-out: Na+ Ratio)?
Answer: 116%

Question: What about the response vs control in vivo at 10 mg/kg ([1]; 10 mg/kg oral, male Okamoto-Aoki rats, read-out: Volume Ratio) of the same compound?
Answer: 126%

Question: And the response vs control in vivo at 30 mg/kg [1, 12]?
Answer: 116%

Question: And the response vs control in vivo at 30 mg/kg [1, 13]?
Answer: 134%

Question: What about the response vs control in vivo at 30 mg/kg [1, 14] of the same compound?
Answer: 116%

Question: What about the response vs control in vivo at 30 mg/kg [1, 15] of the same compound?
Answer: 130%

Question: What about the response vs control in vivo at 30 mg/kg [1, 16] of the same compound?
Answer: 135%

Question: What about the response vs control in vivo at 30 mg/kg [1, 17] of the same compound?
Answer: 163%

Question: And the “ΔBP 4 hours” value ([2]; 30 mg/kg oral)?
Answer: -62 ± 13 mm Hg

Question: What about the “ΔHR 4 hours” value ([2]; 30 mg/kg oral) of the same compound?
Answer: 63 ± 32 beats per minute

Question: And the “Average Dose Shift” value ([3]; dose 10, intravenous)?
Answer: dose too high

Question: What about the “in vivo α blocking activity (in words)” value [3] of the same compound?
Answer: active as in vivo α blockers

Question: And the ED50 [3]?
Answer: 41.0

Question: And the IC50 [4]?
Answer: 23.4 nM

Question: And the “α2 binding activity (in words)” value [5]?
Answer: α2 binding activity

Question: What about the IC50 [5] of the same compound?
Answer: 806 nM
